# From patent US12351565B2, “Aromatic compound and preparation method therefor and use thereof” (SHANGHAI JIANHE PHARMACEUTICAL & TECHNOLOGY CO. LTD., priority 2018, dated 2025)
# Columns and labels:
# [1] = system: C57 mice; experiment: Forced swimming experiment, oral administration to mice; format: in vivo; conditions: inhibition of immobility time, C57 mice
# Outline: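 Male C57 mice (6 weeks) dosed once orally at 20 mg/kg in 0.9% NaCl, tested 1 h and 24 h later after a 10 min pre-swim the day before. Immobility over the last 4 min of a 6 min swim (water 23-25° C); inhibition rate (%) calculated against blank group at each time.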
# [2] = In vivo pharmacokinetic experiment in mice; conditions: C57 mice
# Description: Healthy male C57 mice were randomly divided into groups with 3 mice in each group, and the test compounds were administrated intragastrically or by intravenous injection. See Table 6 below for specific arrangements:
# (§1) Each test compound was dissolved in physiological saline to prepare a certain concentration of solution for administration.
# (§2) One day before administration, the mice were fasted and allowed to drink freely for 12-14 h. The mice were fed 4 h after administration.
# (§3) 0.030 mL of blood was took from each animal each time through the orbit, and anticoagulated with EDTAK2. The collection time points were as follows: in PO group, 5 min, 15 min, 30 min, 1 h, 2 h, 4 h, 6 h, 8 h, 24 h after administration of test substance; in IV group, 2 min, 5 min, 15 min, 30 min, 1 h, 2 h, 4 h, 6 h, 8 h, 24 h after administration of test substance. After blood samples were collected, they were placed on ice and centrifuged to separate the plasma within 30 minutes (centrifugation conditions: 5000 rpm, 10 minutes, 4° C.). The sample were stored at −80° C. before analysis.
# [3] = In vivo pharmacokinetic experiment in rats; conditions: SD rats
# Description: Healthy male SD rats were randomly divided into groups with 3 rats in each group, and the test compounds were administrated intragastrically or by intravenous injection. See Table 8 below for specific arrangements:
# as §1
# as §3, with “One day before administration, the rats were fasted and allowed to drink freely for 12-14 h. The rats were fed 4 h after administration. 0.030 mL” for “0.030 mL”, “anticoagulated with EDTAK2 anticoagulation. The collection” for “anticoagulated with EDTAK2. The collection”, “group, 5 min, 10 min, 15” for “group, 5 min, 15”
# [4] = Distribution in mouse brain tissue; format: in vivo, C57 mice
# Description: Healthy male C57 mice were randomly divided into groups with 3 mice in each group, and the test compound was administrated intragastrically. See Table 10 below for specific arrangements:
# as §1, §2
# After the animals were bled, the brain tissue was collected. After washing, 50% ice methanol was added for homogenate at 1:4 (m/v). The collection time points was 10 min, 15 min, 30 min, 1 h, 2 h after administration of the test substance; 30.0 μL of tissue sample was taken (the sample was taken out from the refrigerator at −80° C., vortexed for 30 seconds after natural melting at room temperature) and added into a 1.5 mL centrifuge tube. 300.0 μL internal standard solution (30 ng/mL […] acetonitrile solution) was added, the mixture was vortex for 60 seconds and then centrifuged for 3 minutes (centrifugal force was 12000 rpm); 75 μL of the supernatant was taken and transferred to 96-well injection plate loaded with equal volume of water, shaken and mixed well, and subjected to LC-MS/MS analysis, wherein injection volume was 10 μL.
# [5] = male, mouse, iv, 5 mg/kg i.v., plasma
# [6] = male, mouse, po, 20 mg/kg p.o., plasma
# [7] = male, rat, iv, 5 mg/kg i.v., plasma
# [8] = male, rat, po, 20 mg/kg p.o., plasma
structure (smiles),measurement,setting,value
"Cl.N[C@]1(c2ccc(C(F)(F)F)cc2)CCC[C@H](O)C1=O [Compound 51, (2S,6S)-2-amino-6-hydroxy-2-(4-(trifluoromethyl)phenyl)cyclohexane-1-one hydrochloride]",1 h inhibition rate,[1]; forced swimming 1 h after single oral (intragastric) 20 mg/kg,66.9 ± 0.3%
same,24 h inhibition rate,[1]; forced swimming 24 h after single oral (intragastric) 20 mg/kg,38.6 ± 2.1%
same,AUC0-t,"[2]; 5 mg/kg i.v., plasma",6471 ngh/mL
same,AUC0-∞,"[2]; 5 mg/kg i.v., plasma",6567 ngh/mL
same,F,[2]; 20 mg/kg p.o. vs 5 mg/kg i.v.,68.0%
same,AUC0-t,"[2]; 20 mg/kg p.o., plasma",17539 ngh/mL
same,AUC0-∞,"[2]; 20 mg/kg p.o., plasma",17877 ngh/mL
same,MRT,[2]; [5],1.23 h
same,half-life,[2]; [5],1.79 h
same,clearance,"[2]; male, mouse, plasma, iv, 5 mg/kg i.v.",13.5 mL/min/kg
same,Vd,"[2]; male, mouse, plasma, iv, 5 mg/kg i.v., read-out: Vss",0.98 L/kg
same,Cmax,[2]; [6],7520 ng/mL
same,MRT,[2]; [6],3.59 h
same,Tmax,[2]; [6],5 min
same,half-life,[2]; [6],4.09 h
same,AUC0-t,"[3]; 5 mg/kg i.v., plasma",19871 ngh/mL
same,AUC0-∞,"[3]; 5 mg/kg i.v., plasma",20688 ngh/mL
same,F,[3]; 20 mg/kg p.o.,86%
same,AUC0-t,"[3]; 20 mg/kg p.o., plasma",68383 ngh/mL
same,AUC0-∞,"[3]; 20 mg/kg p.o., plasma",70298 ngh/mL
same,MRT,[3]; [7],6.15 h
same,half-life,[3]; [7],5.6 h
same,clearance,"[3]; male, rat, plasma, iv, 5 mg/kg i.v.",4.03 mL/min/kg
same,Vd,"[3]; male, rat, plasma, iv, 5 mg/kg i.v., read-out: Vss",1.49 L/kg
same,Cmax,[3]; [8],9350 ng/mL
same,MRT,[3]; [8],6.21 h
same,Tmax,[3]; [8],0.33 h
same,half-life,[3]; [8],4.74 h
same,AUC0-∞,"[4]; C57 mouse brain tissue, 20 mg/kg p.o.",46324 ng·h/g
same,concentration at 15 min,"[4]; male, brain, po, C57 mouse, 10 mg/kg p.o., 15 min",5090 ng/g
same,concentration at 10 min,"[4]; male, brain, po, C57 mouse, 20 mg/kg p.o. (intragastrically), 10 min",23500 ng/g
same,half-life,"[4]; male, po, C57 mouse brain tissue, 20 mg/kg p.o.",1.36 h
